Experimental data reported in patent EP2345639A1, “Cyclic hydroxylamine derivatives, their preparation and use as antioxidants” (ABIOGEN PHARMA S.p.A., priority 2009, dated 2011).
Where two headings read alike, the source gives them in different places.

What was measured:
healthy animals = assay: Effect of the compounds on healthy animals (same in vivo assay, cerebral oxidative parameters); set-up: species or system mice; settings: for Brain/BWi / CAT/pr / GPX/pr / GSH/pr / GST/pr / Prot. Hmg / Prot. Ox/pr / SOD/pr: 50 mg/kg IP x3 days, percentage change relative to the vehicle
Method: (§1) 10 mice were used for each treatment group. For each compound 50 mg/kg were administered intraperitoneally (IP) for three consecutive days (day 0, 1 and 2); half the animals (5) also received IP 16.7 mg/kg of doxorubicin immediately after the first treatment (day 0). On the day after the last administration (day 3) the animals were killed by neck dislocation and the brains were removed, weighed and frozen in liquid nitrogen.
(§2) For the analyses of oxidative stress, 100 mg/ml of brain homogenate was prepared in HEB^(*) buffer (pH 7.4 EDTA/HEPES^(**)) containing a mixture of enzyme inhibitors (Leupeptin, Pepstatin, Aprotinin, BHA).
(§3) The evaluation parameters were: • BrW/BWi: ratio between final brain weight and initial body weight (day 0); • Prot. Hmg: total proteins in the homogenate (BCA method, i.e. bicinchoninic acid); • Prot. Ox: oxidized proteins in the Hmg by means of a colorimetric method using dinitrophenylhydrazone (DNPH); • GSH: reduced glutathione in the supernatant (sn) of the Hmg, obtained after precipitation with metaphosphoric acid (MPA), by means of a colorimetric method using dithiodinitrobenzene (DTNB); • CAT: catalase in the Hmg by a colorimetric method using potassium dichromate; • SOD: superoxide dismutase by a colorimetric method using SOD Reagent (xanthine, EDTA, nitroblue tetrazole, Na2CO3, BSA, i.e. bovine serum albumin); • GST: glutathione S-transferase in the supernatant by a colorimetric method using chlorodinitrobenzene (CDNB) and GSH; and • GPx: glutathione peroxidase in the supernatant after addition of GSH and t-BuOOH, heating and precipitation with MPA; followed by GSH method with DTNB. The assay was performed on the compounds (1)-(5) and (7)-(11) and on edaravone (E), as comparative compound.
The mean % effect, on all the parameters simultaneously, of the triple treatment in healthy animal, as mean percentage change relative to the vehicle. This value is useful as an approximate safety index of the oxidative state of the brain, i.e. the capacity of the compounds of the invention not to alter cerebral homeostasis in healthy animals.

[1] = Acid dissociation constants (pKa) by titration; format: physicochemical; settings: pH at semi-neutralization point of titration with 0.1 N NaOH or HCl
Method: The following equipment was used during the implementation of all the examples: • for melting point determination a Buchi B-540 instrument was used; • the pKa is the pH at the semi-neutralization point of titration using a Mettler Toledo DL-50 instrument with a 0.1 N NaOH or HC! solution; • the ^1H-NMR spectra were recorded at 300 MHz and the ^13C-NMR spectra were recorded at 75 MHz using a Varian Unity 300 instrument; • spectrophotometric measurements were carried out using a Lambda Perkin Elmer 15 UV/Vis spectrophotometer for the DPPH assay and a Wallac Victor 1420 multilabel counter spectrophotometer.

[2] = Brain-to-plasma concentration ratio in mice; format: in vivo, Female CD-1 mice; settings: female, CD-1, mouse, ip, 25 mg/kg intraperitoneal, area under the curve of brain and plasma concentrations 0 to 60 minutes, read-out: B/P ratio
Method: The ability of the compounds of the invention to penetrate the brain was investigated by measuring their brain/plasma (B/P) ratio in mice following intraperitoneal administration.
Female CD-1 mice were used (n=3 for each time period) and received the compounds of the invention by intraperitoneal administration, in 25 mg/kg doses in a 0.5% NaHCO3 buffer (pH 8.3). At predefined intervals following said administration, i.e. 5, 15, 30 and 60 minutes, the mice were killed and both plasma and total brain tissue were collected.
Specifically, after anaesthesia with ether, the animals were bled by blood withdrawal from the abdominal aorta then immediately decapitated. The blood samples were collected into plasma separator tubes containing Li-Heparin as anticoagulant and centrifuged. The resulting plasma was then stored at -20 °C. The brain was rapidly removed from the cranium and weighed, subsequently frozen and stored at -20 °C before treatment by homogenization and HPLC analysis.
The plasma was thawed and mixed with an equal volume of the extraction solution.
1 ml of solution was then extracted by adding 20 µl of 70% HClO4, then centrifuged at 15,500g for 5 minutes and injected into the HPLC.
Each brain was thawed and homogenized with the extraction solution to provide a final composition of 4 ml/1g of tissue by means of an Ultra-Turrax blender and sonicated for 5 minutes. After centrifugation of the homogenate at 15,500g for 5 minutes, the resulting solution was treated with HClO4, as indicated for the plasma. Specific chromatographic conditions had been developed for each analyte, the calibration curve being constructed for plasma and brain homogenate.

[3] = test system: doxorubicin-induced cerebral oxidative stress in mice; assay: In vivo assay of cerebral oxidative stress induced in mice by doxorubicin (model and oxidized animals); settings: for inhibition in vivo at 50 mg/kg / change in vivo at 50 mg/kg: Mus musculus; for inhibition in vivo at 50 mg/kg: read-out: inhibition of the doxorubicin effect; for change in vivo at 50 mg/kg / mean % effect relative to doxorubicin alone, all parameters (Vehicle): oxidized mice; for mean % effect relative to doxorubicin alone, all parameters (Vehicle): computed as a function of the vehicle
Method: The assay was carried out on compounds (1)-(5) and (7)-(11) and on edaravone (E) as comparative compound.
as §1, §2, §3
The mean effect (n=5 experiments) of doxorubicin (D), i.e. "oxidized" animal, relative to the vehicle (V), the vehicle representing the healthy animal.
All the parameters, with the exclusion of Brain/BWi and Prot. Hmg, were normalized for total Hmg proteins. The D value standard deviations and the % incidence relative to V are given in italics.
The effect of the tested compounds on the "oxidized" animals was given as % inhibition relative to the percentage change due to doxorubicin alone. The effect of the compounds on the oxidized animals can be expressed both as a function of the values of the vehicle (healthy, vehicle only) and as a function of the value of its own (healthy, compound only): • Vehicle: percentage [(Compound+D)/V]x100/[(V+D)/V]x100 • Its own: percentage [(Compound+D)/Compound]x100/[(V+D)/V]x100
Again in this case, the mean % effect relative to doxorubicin alone could be given for all the parameters simultaneously, as an approximate index of effectiveness on the cerebral oxidative state of the animal.

[4] = healthy mice, 50 mg/kg IP for three consecutive days, mean over all parameters, D = doxorubicin alone, 50 mg/kg
[5] = ip, overall, with respect to the vehicle
[6] = ip, % inhibition relative to change due to doxorubicin alone, vs its own, read-out: Brain/BWi its own
[7] = ip, % inhibition relative to change due to doxorubicin alone, vs its own, read-out: CAT/pr its own
[8] = ip, % inhibition relative to change due to doxorubicin alone, vs its own, read-out: GPX/pr its own
[9] = ip, % inhibition relative to change due to doxorubicin alone, vs its own, read-out: GSH/pr its own
[10] = ip, % inhibition relative to change due to doxorubicin alone, vs its own, read-out: GST/pr its own
[11] = ip, % inhibition relative to change due to doxorubicin alone, vs its own, read-out: Prot. Hmg its own
[12] = ip, % inhibition relative to change due to doxorubicin alone, vs its own, read-out: Prot. Ox/pr its own
[13] = ip, % inhibition relative to change due to doxorubicin alone, vs its own, read-out: SOD/pr its own
[14] = ip, % inhibition relative to change due to doxorubicin alone, vs vehicle, read-out: Brain/BWi vehicle
[15] = ip, % inhibition relative to change due to doxorubicin alone, vs vehicle, read-out: CAT/pr vehicle
[16] = ip, % inhibition relative to change due to doxorubicin alone, vs vehicle, read-out: GPX/pr vehicle
[17] = ip, % inhibition relative to change due to doxorubicin alone, vs vehicle, read-out: GSH/pr vehicle
[18] = ip, % inhibition relative to change due to doxorubicin alone, vs vehicle, read-out: GST/pr vehicle
[19] = ip, % inhibition relative to change due to doxorubicin alone, vs vehicle, read-out: Prot. Hmg vehicle
[20] = ip, % inhibition relative to change due to doxorubicin alone, vs vehicle, read-out: Prot. Ox/pr vehicle
[21] = ip, % inhibition relative to change due to doxorubicin alone, vs vehicle, read-out: SOD/pr vehicle
[22] = 50 mg/kg IP x3 days + doxorubicin, computed as a function of its own (healthy, compound only), read-out: mean % effect relative to doxorubicin alone, all parameters (Its own)
[23] = 50 mg/kg IP x3 days + doxorubicin
[24] = ip, overall, compared with its own vehicle

Brain/BWi (healthy animals; healthy mice) [%] | CAT/pr (healthy animals; healthy mice) [%] | GPX/pr (healthy animals; healthy mice) [%] | Compound | change in vivo at 50 mg/kg [3, 6] [%] | change in vivo at 50 mg/kg [3, 7] [%] | change in vivo at 50 mg/kg [3, 8] [%] | change in vivo at 50 mg/kg [3, 9] [%] | change in vivo at 50 mg/kg [3, 10] [%] | change in vivo at 50 mg/kg [3, 11] [%] | change in vivo at 50 mg/kg [3, 12] [%] | change in vivo at 50 mg/kg [3, 13] [%] | change in vivo at 50 mg/kg [3, 14] [%] | change in vivo at 50 mg/kg [3, 15] [%] | change in vivo at 50 mg/kg [3, 16] [%] | change in vivo at 50 mg/kg [3, 17] [%] | change in vivo at 50 mg/kg [3, 18] [%] | change in vivo at 50 mg/kg [3, 19] [%] | change in vivo at 50 mg/kg [3, 20] [%] | change in vivo at 50 mg/kg [3, 21] [%] | change in vivo at 50 mg/kg [3, 22] [%] | further results
1.4 | -10.5 | -1.8 | CC1(C)CC(=O)C(C2CCCCN2O)C(=O)C1 (stereo not shown) [(3), 2-(1-hydroxypiperidin-2-yl)-5,5-dimethylcyclohexane-1,3-dione] | 7.2 | -87.1 | -108 | -11.2 | -50.5 | -125 | 195 | 30.8 | -53.6 | -23.5 | -91.9 | -49.6 | -110 | -114 | -45.9 | 86.7 | -76.6 | Average % variation with respect to the vehicle (healthy animals; [4]): did not significantly alter the parameters; Average % variation with respect to the vehicle (healthy animals; healthy mice, 50 mg/kg IP for three consecutive days, mean over all parameters, D = doxorubicin alone, listed as V+(3), 50 mg/kg): -0.2%; GSH/pr (healthy animals; healthy mice): 2.0%; GST/pr (healthy animals; healthy mice): 4.1%; Prot. Hmg (healthy animals; healthy mice): 2.5%; Prot. Ox/pr (healthy animals; healthy mice): -8.6%; SOD/pr (healthy animals; healthy mice): -2.8%; pKa1 [1]: 3.47; pKa2 [1]: 6.92; Kp [2]: > 0.1; inhibition in vivo at 50 mg/kg [3, 5]: ≥ 50%; inhibition of the doxorubicin effect ([3]; overall, compared with its own vehicle): at the level of edaravone; mean % effect relative to doxorubicin alone, all parameters (Vehicle) [3, 23]: -50.3%
-9.8 | -11.6 | -0.8 | O=C1CCC(=O)C1C1COCCN1O (stereo not shown) [(7), 2-(4-hydroxymorpholin-3-yl)-cyclopentane-1,3-dione] | -85.5 | -45.5 | -30.3 | -138 | -29.7 | -48.2 | 20.3 | -23.8 | 21.7 | 2.3 | -23.2 | -60.8 | -22 | -14.5 | -22.1 | -25.9 | -85.5 | Average % variation with respect to the vehicle (healthy animals; [4]): did not significantly alter the parameters; Average % variation with respect to the vehicle (healthy animals; healthy mice, 50 mg/kg IP for three consecutive days, mean over all parameters, D = doxorubicin alone, listed as V+(7), 50 mg/kg): -3.5%; GSH/pr (healthy animals; healthy mice): -9.5%; GST/pr (healthy animals; healthy mice): -0.5%; Prot. Hmg (healthy animals; healthy mice): 3.6%; Prot. Ox/pr (healthy animals; healthy mice): -7.2%; SOD/pr (healthy animals; healthy mice): 0.5%; pKa1 [1]: 2.32; pKa2 [1]: 4.98; Kp [2]: > 0.1; inhibition in vivo at 50 mg/kg [3, 24]: ~85%
2.7 | -5.0 | -6.7 | CC1=NN(c2ccccc2)C(=O)C1 [edaravone, reference compound] | -13 | -120 | -130 | -111 | -126 | -117 | -5.2 | -49 | -44.9 | -100 | -106 | -59.2 | -110 | -102 | -22.7 | -32.9 | -77.2 | Average % variation with respect to the vehicle (healthy animals; healthy mice, 50 mg/kg IP for three consecutive days, mean over all parameters, D = doxorubicin alone): -2.7%; GSH/pr (healthy animals; healthy mice): -5.5%; GST/pr (healthy animals; healthy mice): -3.1%; Prot. Hmg (healthy animals; healthy mice): 3.7%; Prot. Ox/pr (healthy animals; healthy mice): -2.3%; SOD/pr (healthy animals; healthy mice): -2.2%; Kp [2]: 0.123; inhibition in vivo at 50 mg/kg [3, 24]: 75%; inhibition in vivo at 50 mg/kg [3, 5]: ~75%; mean % effect relative to doxorubicin alone, all parameters (Vehicle) [3, 23]: -72.3%
 |  |  | O=C1c2ccccc2C(=O)C1C1COCCN1O (stereo not shown) [(8), 2-(4-hydroxymorpholin-3-yl)-2H-indene-1,3-dione] | -103 | -28.8 | -2 | -139 | -14.3 | -20.5 | -96.5 | -11.9 | 0 | 27.3 | 29.3 | -48 | 68.1 | 49.4 | -65.7 | 11.9 | -45.6 | Average % variation with respect to the vehicle (healthy animals; mouse, in vivo, ip, 50 mg/kg): -8.0%; pKa1 [1]: 2.17; pKa2 [1]: 5.98; inhibition in vivo at 50 mg/kg [3, 24]: 45 to 50%
